Data taken from US20240299504A1, “COMPOSITIONS AND METHODS FOR TREATING ALZHEIMERS DISEASE” (priority 2023, published 2024).

Key:
5×FAD mice = experiment: Y-maze test; format: in vivo, mouse; settings: 5×FAD female mice ~5-MO vs Veh-treated 5×FAD female
Protocol: (§1) Parathyroid hormone (human) was purchased from TOCRIS Bioscience (Cat #3011/1, Abingdon, United Kingdom). WT or 5×FAD mice (both male and female) were treated with PTH1-34 intermittently [once daily injection of hPTH1-34 (50 μg/Kg) or vehicle (0.9% sodium chloride) (as a control) by subcutaneous injection, starting at 2-MO, 5 days per week] as described previously. Mice were then subjected to behavioral tests and sacrificed for examinations of their bone and brain phenotypes at the indicated ages.
Mice (female and male) at the age of ˜5-MO were subjected to behavioral studies. The experimental procedures are described as previously. […] The total arm entries and the number of tri-ads were recorded to quantify the percentage of spontaneous alternation. For novel object recognition (NOR), which tests mouse's memory ability for a novel object, 20 min were recorded to analyze the time to explore the old object vs. the new object of each mouse. […] During test trials, one of the objects was replaced with a new object and mice were free to explore for another 20 min, and the time spent exploring the new object and the old object was recorded. The discrimination index is quantified as the novelty object preference, which is the time spent exploring the new object minus the time exploring the old object over the total exploration time.

Aβ plaques = experiment: Aβ deposition assay (Thioflavin S staining); format: in vivo, mouse; settings: vs Veh
Protocol: as §1
Thioflavin S (Thio-S) staining was used for Aβ deposition assay as previously described with minimal modification. Beginning with the lateral-most section in the ROI (region of interest), every sixth tissue section of six consecutive sections was used. […] The brain slices were then washed with a series of graded EtOH in the dark as follows: 95% EtOH for 2 min, 80% EtOH for 2 min, and 70% EtOH for 2 min. Finally, the brain slices were washed with PBS 3 times in the dark and transferred to slides for sealing with an antifade fluorescence mounting medium. All the brain slices were captured on a Laser confocal microscopy. The images were adjusted to the same threshold to increase signal-to-noise ratio. Plaques >5.5 μm^2 were quantified. Four sections per mouse were quantified. The layers or sub-regions of cortex and hippocampus in each image were outlined and analyzed with the National Institutes of Health ImageJ software.

IBA1+ microglia = experiment: Co-immunostaining ThioS/IBA1/LPL, microglial cells; format: in vivo, mouse; settings: 6-MO 5×FAD female mice vs Veh
Protocol: as §1
(§2) DAPI was used for nucleus staining.

[1] = tested on: serum inflammatory cytokines; experiment: Mouse serum cytokine array; format: in vivo
Protocol: as §1
Serum samples from 5×FAD, Tg2576, and their WT control female mice (6˜MO) were collected and used for serum cytokine detection. Cytokines were measured with Mouse Cytokine Array Panel A (R&D Systems, cat #ARY006, Minneapolis, MN, USA). Briefly, the mixture of serum and the biotinylated detection antibodies cocktail is incubated with a Mouse Cytokine Array membrane. Any cytokine/detection antibody complex present was bound on the membrane by its cognate immobilized capture antibody. After washing off the unbound protein, streptavidin-horseradish peroxidase and chemiluminescent detection reagents were added to generate light signals. The light produced at each spot is proportional to the amount of cytokine binding.

osteocalcin = experiment: Serum osteocalcin ELISA (bone formation marker); format: in vivo, mouse; settings: 6-MO female 5×FAD vs control mice; 50 μg/Kg s.c. intermittent
Protocol: as §1
Submandibular blood collection was performed in anesthetized mice. A swift lancing motion is used to puncture the vessel. Blood sample (up to 200 μl) was collected with a pipette or other collection tube, allowed to stand at room temperature for 30 min and centrifuged for 15 min at 3000 rpm. Supernatant serum was aliquot and frozen at −80° C. until use. Mouse serum levels of osteocalcin (a marker for bone formation), PYD (pyridinoline, a marker for bone resorption), and PTH were measured using mouse osteocalcin Elisa kit (QUIDEL Corporation), METRA Serum PYD EIA kit (QUIDEL Corporation, San Diego, CA, USA), and mouse PTH Elisa kit (MyBioSource), respectively, following the manufacturers' instruction.

5×FAD astrocytes = experiment: RT-qPCR of cytokines and chemokines in cultured astrocytes; format: cell-based, mouse; settings: cultured 5×FAD astrocytes, 100 ng/ml, 24 h
Protocol: Total RNA was extracted from cortex, hippocampus, or cultured astrocytes using a TRizol reagent (Invitrogen, cat #15596-026, Carlsbad, CA, USA) as previously described. Purified RNA (1-5 μg) was used for cDNA synthesis with the Revert Aid First Strand cDNA Synthesis Kit (Thermo Scientific, cat #K1621, Waltham, MA, USA). The cDNA products were subjected to subsequent quantitative PCR (qPCR) using the QuantiFast SYBR Green PCR Kit (QIA-GEN, cat #204057, Hilden, Germany) with a qPCR System (StepOne Plus). Each sample was repeated at least 3 times, and the mRNA level was normalized to GAPDH using the 2^−ΔΔCt method.
Astrocyte culture was performed according to the standard protocol with some modifications as described in previous literature. In brief, the cerebral cortex and hippocampus of postnatal day 3 (P3) female pups were dissected under a stereomicroscope and placed in ice-cold calcium- and magnesium-free HBSS (Hanks Balanced Salt Solution). The tissues were digested with 2.5% trypsin-EDTA, 3 ml for each mouse, at 37° C. for 20 min with shaking slightly every 5 min. The digested tissue was blown into single-cell suspension, filtered through a […] filter mesh, pelleted at 900×g for 5 min, and resuspended in growth medium (DMEM plus 10% FBS), which was incubated at 37° C. with 5% CO2. […]

GFAP+ astrocytes = experiment: Co-immunostaining ThioS/GFAP, reactive astrocytes; format: in vivo, mouse
Protocol: as §1, §2

CC[C@H](C)[C@H](NC(=O)[C@H](CCC(=O)O)NC(=O)[C@H](CO)NC(=O)[C@@H](NC(=O)[C@@H](N)CO)C(C)C)C(=O)N[C@@H](CCC(N)=O)C(=O)N[C@@H](CC(C)C)C(=O)N[C@@H](CCSC)C(=O)N[C@@H](Cc1cnc[nH]1)C(=O)N[C@@H](CC(N)=O)C(=O)N[C@@H](CC(C)C)C(=O)NCC(=O)N[C@@H](CCCCN)C(=O)N[C@@H](Cc1cnc[nH]1)C(=O)N[C@@H](CC(C)C)C(=O)N[C@@H](CC(N)=O)C(=O)N[C@@H](CO)C(=O)N[C@@H](CCSC)C(=O)N[C@@H](CCC(=O)O)C(=O)N[C@@H](CCCN=C(N)N)C(=O)N[C@H](C(=O)N[C@@H](CCC(=O)O)C(=O)N[C@@H](Cc1c[nH]c2ccccc12)C(=O)N[C@@H](CC(C)C)C(=O)N[C@@H](CCCN=C(N)N)C(=O)N[C@@H](CCCCN)C(=O)N[C@@H](CCCCN)C(=O)N[C@@H](CC(C)C)C(=O)N[C@@H](CCC(N)=O)C(=O)N[C@@H](CC(=O)O)C(=O)N[C@H](C(=O)N[C@@H](Cc1cnc[nH]1)C(=O)N[C@@H](CC(N)=O)C(=O)N[C@@H](Cc1ccccc1)C(=O)O)C(C)C)C(C)C [PTH1-34]
Y maze total arm entries (5×FAD mice): comparable arm entries to those of Veh-treated 5×FAD female mice
reduction in plaque density (Aβ plaques; female 5×FAD cortex): ~46%
reduction in plaque size (Aβ plaques; female 5×FAD cortex): ~34%
reduction in plaque density (Aβ plaques; female 5×FAD hippocampus): ~59%
reduction in plaque size (Aβ plaques; female 5×FAD hippocampus): ~56%
reduction in plaque density (Aβ plaques; male 5×FAD cortex): ~32%
reduction in plaque size (Aβ plaques; male 5×FAD cortex): ~28%
reduction in plaque density (Aβ plaques; male 5×FAD hippocampus): ~50%
reduction in plaque size (Aβ plaques; male 5×FAD hippocampus): ~23%
Aβ associated LPL+IBA1+ microglial cells (DAM) (IBA1+ microglia): little to no difference
IBA1+ cell density and fluorescence intensity in regions without Aβ plaques (IBA1+ microglia): comparable
ThioS+ Aβ plaque associated IBA1 fluorescence (IBA1+ microglia): unchanged
overall IBA1 fluorescence intensity (IBA1+ microglia; cortex and hippocampus): lower in PTH1-34 treated 5×FAD cortex and hippocampus than that of Veh controls
elevated serum factors (IL-1rα, IL-2, IL-3, IL-4, IL-10, CXCL9, CCL3) ([1]; 6-MO 5×FAD female mice): all reduced
serum inflammation-associated factors IL1β, TNFα, TREM-1, CCL11, CCL5 ([1]; 6-MO 5×FAD female mice): reduced
serum factor CCL4 ([1]; 6-MO 5×FAD female mice (CCL4 decreased in 5×FAD)): restored
serum osteocalcin levels (osteocalcin): increased serum osteocalcin levels more in 5×FAD mice than that in control mice
expression of cytokines or chemokines (TNF-α, TGF-β1, CCL5, GM-CSF, RANK) (5×FAD astrocytes): Nearly all these factors (except GM CSF) were reduced
inhibition of glial cell activation (GFAP, IBA1), by sex (GFAP+ astrocytes; female and male 5×FAD mice, 6-MO): detectable in both female and male 5×FAD mice
GFAP+ fluorescence intensity (GFAP+ astrocytes; layers of cortex (except layer II/III) and DG region of hippocampus, ~6 MO female 5×FAD vs Veh): lower in PTH1-34 treated 5×FAD mice than that of Veh controls
effect on glial cells (GFAP, IBA1) (GFAP+ astrocytes; wild-type (WT) female mice, 6-MO): little effect
plaque-associated GFAP fluorescence (GFAP+ astrocytes; ~6 MO female 5×FAD cortex and hippocampus vs Veh): diminished
